Data: patent publication US9624170B2, “4-(piperrazin-1-yl)-pyrrolidin-2-one compounds as monoacylglycerol lipase (MAGL) inhibitors” (TAKEDA PHARMACEUTICAL COMPANY LIMITED, priority 2013, dated 2017)

Target: T1, human MAGL (His-hMAGL) (Homo sapiens, UniProt Q99685)
T1 construct: made in house; host or cells: Escherichia coli BL21(DE3)
T1 sequence (Q99685 1-303): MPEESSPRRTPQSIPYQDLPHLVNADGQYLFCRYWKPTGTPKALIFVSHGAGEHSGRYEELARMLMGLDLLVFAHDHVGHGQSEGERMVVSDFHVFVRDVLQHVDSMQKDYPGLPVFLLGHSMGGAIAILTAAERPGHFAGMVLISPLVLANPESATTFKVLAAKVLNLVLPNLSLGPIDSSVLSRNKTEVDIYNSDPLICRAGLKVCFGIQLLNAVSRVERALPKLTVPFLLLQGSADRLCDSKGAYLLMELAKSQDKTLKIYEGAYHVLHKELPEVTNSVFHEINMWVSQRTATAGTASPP
Experiment: Measurement of MAGL inhibitory activity by mass spectrometry
Type: biochemical
Settings: 10 μM test compound, substrate 2-arachidonylglycerol, arachidonic acid by RapidFire-mass spectrometry
Description: Thereafter, to each well was added 150 μM 2-arachidonylglycerol (Tocris Bioscience) by 5 μL, and the mixture was incubated at room temperature for 10 min. Then, 2% formic acid (Wako Pure Chemical Industries, Ltd.) was added by 10 μL to discontinue the reaction. Furthermore, acetonitrile (50 μL) containing 3 μM arachidonic acid-d8 (Cayman Chemical Company) was added and the mixture was stirred. The amount of arachidonic acid in the obtained enzyme reaction mixture was calculated by measuring by RapidFire-mass spectrometry and correcting by the amount of arachidonic acid-d8. High Throughput online solid phase extraction was performed using RapidFire 300TM system (Agilent Technologies, Inc.). […] The injection needle was washed with ultrapure water (500 millisecond) and acetonitrile (500 millisecond) to minimize carry-over. […] The RapidFire300 system was controlled by RapidFire UI software version 3.6 (Agilent Technologies, Inc.). The mass spectrometry of the resultant product was performed using […] triple quadrupole mass spectrometer (AB SCIEX) equipped with an electrospray ion sauce (Turbolon SprayTM) in a negative selected reaction monitoring (SRM) mode. The conditions of SRM are shown below. The parameters of the instrument were optimized as follows: capillary temperature 600° C., ion spray voltage -4.5 kV, collision gas 8, curtain gas 15 psi, ion source gas 1 60 psi, ion source gas 2 60 psi. The mass spectrometer was controlled by AnalystTM software version 1.5.1 (AB SCIEX). The peak area integration was analyzed using RapidFire integrator software version 3.6 (Agilent Technologies, Inc.). MAGL inhibitory rate (%) was calculated according to the following calculation formula.

Structure (SMILES): O=C1CCc2ccc(Nc3cccc(N4CC(N5CCN(C(=O)c6nccs6)CC5)CC4=O)c3)cc2N1 (centres unmarked) [Example 123, 7-((3-(2-oxo-4-(4-(1,3-thiazol-2-ylcarbonyl)piperazin-1-yl)pyrrolidin-1-yl)phenyl)amino)-3,4-dihydroquinolin-2(1H)-one]
- inhibition at 10 µM: 97%

Structure (SMILES): CC(=O)N1CCCC(Nc2cccc(N3CC(N4CCN(C(=O)c5nccs5)CC4)CC3=O)c2)C1 (centres unmarked) [Example 126, 1-(3-((1-acetylpiperidin-3-yl)amino)phenyl)-4-(4-(1,3-thiazol-2-ylcarbonyl)piperazin-1-yl)pyrrolidin-2-one]
- inhibition at 10 µM: 97%

Structure (SMILES): CN1CC(Nc2cccc(N3CC(N4CCN(C(=O)c5nccs5)CC4)CC3=O)c2)CCC1=O (centres unmarked) [Example 127, 1-methyl-5-((3-(2-oxo-4-(4-(1,3-thiazol-2-ylcarbonyl)piperazin-1-yl)pyrrolidin-1-yl)phenyl)amino)piperidin-2-one]
- inhibition at 10 µM: 99%

Structure (SMILES): O=C(c1nccs1)N1CCN(C2CC(=O)N(c3ccc4c(ccn4-c4ccc(C(F)(F)F)nn4)c3)C2)CC1 (centres unmarked) [Example 128, 4-(4-(1,3-thiazol-2-ylcarbonyl)piperazin-1-yl)-1-(1-(6-(trifluoromethyl)pyridazin-3-yl)-1H-indol-5-yl)pyrrolidin-2-one]
- inhibition at 10 µM: 101%

Structure (SMILES): O=C(c1nccs1)N1CCN(C2CC(=O)N(c3ccc4c(ccn4-c4cnc(C(F)(F)F)cn4)c3)C2)CC1 (centres unmarked) [Example 129, 4-(4-(1,3-thiazol-2-ylcarbonyl)piperazin-1-yl)-1-(1-(5-(trifluoromethyl)pyrazin-2-yl)-1H-indol-5-yl)pyrrolidin-2-one]
- inhibition at 10 µM: 101%

Structure (SMILES): O=C(c1nccs1)N1CCN(C2CC(=O)N(c3cncc(-c4ccccc4)c3)C2)CC1 (centres unmarked) [Example 131, 1-(5-phenylpyridin-3-yl)-4-(4-(1,3-thiazol-2-ylcarbonyl)piperazin-1-yl)pyrrolidin-2-one]
- inhibition at 10 µM: 91%

Structure (SMILES): Cc1cccc(C)c1-c1cccc(N2CC(N3CCN(C(=O)c4nccs4)CC3)CC2=O)c1 (centres unmarked) [Example 132, 1-(2′,6′-dimethylbiphenyl-3-yl)-4-(4-(1,3-thiazol-2-ylcarbonyl)piperazin-1-yl)pyrrolidin-2-one]
- inhibition at 10 µM: 101%

Structure (SMILES): COc1ccccc1-c1cccc(N2CC(N3CCN(C(=O)c4nccs4)CC3)CC2=O)c1 (centres unmarked) [Example 134, 1-(2′-methoxybiphenyl-3-yl)-4-(4-(1,3-thiazol-2-ylcarbonyl)piperazin-1-yl)pyrrolidin-2-one]
- inhibition at 10 µM: 100%

Structure (SMILES): N#Cc1ccccc1-c1cccc(N2CC(N3CCN(C(=O)c4nccs4)CC3)CC2=O)c1 (centres unmarked) [Example 135, 3′-(2-oxo-4-(4-(1,3-thiazol-2-ylcarbonyl)piperazin-1-yl)pyrrolidin-1-yl)biphenyl-2-carbonitrile]
- inhibition at 10 µM: 100%

Structure (SMILES): O=C(c1nccs1)N1CCN(C2CC(=O)N(c3cccc(-c4ccccc4F)c3)C2)CC1 (centres unmarked) [Example 136, 1-(2′-fluorobiphenyl-3-yl)-4-(4-(1,3-thiazol-2-ylcarbonyl)piperazin-1-yl)pyrrolidin-2-one]
- inhibition at 10 µM: 102%

Structure (SMILES): O=C(c1nccs1)N1CCN(C2CC(=O)N(c3cccc(-c4ccccc4C(F)(F)F)c3)C2)CC1 (centres unmarked) [Example 138, 4-(4-(1,3-thiazol-2-ylcarbonyl)piperazin-1-yl)-1-(2′-(trifluorornethyl)biphenyl-3-yl)pyrrolidin-2-one]
- inhibition at 10 µM: 101%

Structure (SMILES): O=C(c1nccs1)N1CCN(C2CC(=O)N(c3cccc(-c4ccccc4)n3)C2)CC1 (centres unmarked) [Example 140, 1-(6-phenylpyridin-2-yl)-4-(4-(1,3-thiazol-2-ylcarbonyl)piperazin-1-yl)pyrrolidin-2-one]
- inhibition at 10 µM: 100%

Structure (SMILES): O=C(c1nccs1)N1CCN(C2CC(=O)N(c3ccc4c(c3)CCN4c3ncc(C(F)(F)F)cn3)C2)CC1 (centres unmarked) [Example 141, 4-(4-(1,3-Thiazol-2-ylcarbonyl)piperazin-1-yl)-1-(1-(5-(trifluoromethyl)pyrimidin-2-yl)-2,3-dihydro-1H-indol-5-yl)pyrrolidin-2-one]
- inhibition at 10 µM: 98%

Structure (SMILES): CCc1ccccc1-c1cccc(N2CC(N3CCN(C(=O)c4nccs4)CC3)CC2=O)c1 (centres unmarked) [Example 142, 1-(2′-ethylbiphenyl-3-yl)-4-(4-(1,3-thiazol-2-ylcarbonyl)piperazin-1-yl)pyrrolidin-2-one]
- inhibition at 10 µM: 100%

Structure (SMILES): Cc1cccc(-c2cccc(N3CC(N4CCN(C(=O)c5nccs5)CC4)CC3=O)c2)c1C (centres unmarked) [Example 143, 1-(2′,3′-dirnethylbiphenyl-3-yl)-4-(4-(1,3-thiazol-2-ylcarbonyl)piperazin-1-yl)pyrrolidin-2-one]
- inhibition at 10 µM: 102%

Structure (SMILES): Cc1ccc(C)c(-c2cccc(N3CC(N4CCN(C(=O)c5nccs5)CC4)CC3=O)c2)c1 (centres unmarked) [Example 144, 1-(2′,5′-dirnethylbiphenyl-3-yl)-4-(4-(1,3-thiazol-2-ylcarbonyl)piperazin-1-yl)pyrrolidin-2-one]
- inhibition at 10 µM: 101%

Structure (SMILES): O=C(c1nccs1)N1CCN(C2CC(=O)N(c3cccc(-c4c(F)cccc4F)c3)C2)CC1 (centres unmarked) [Example 145, 1-(2′,6′-Difluorobiphenyl-3-yl)-4-(4-(1,3-thiazol-2-ylcarbonyl)piperazin-1-yl)pyrrolidin-2-one]
- inhibition at 10 µM: 102%

Structure (SMILES): O=C(c1nccs1)N1CCN(C2CC(=O)N(c3cccc(-c4c(Cl)cccc4Cl)c3)C2)CC1 (centres unmarked) [Example 146, 1-(2′,6′-dichlorobiphenyl-3-yl)-4-(4-(1,3-thiazol-2-ylcarbonyl)piperazin-1-yl)pyrrolidin-2-one]
- inhibition at 10 µM: 100%

Structure (SMILES): O=C(c1nccs1)N1CCN(C2CC(=O)N(c3cccc(OC(F)(F)F)c3)C2)CC1 (centres unmarked) [Example 148, 4-(4-(1,3-thiazol-2-ylcarbonyl)piperazin-1-yl)-1-(3-(trifluoromethoxy)phenyl)pyrrolidin-2-one]
- inhibition at 10 µM: 95%

Structure (SMILES): Cc1ccc(-c2cccc(N3CC(N4CCN(C(=O)c5nccs5)CC4)CC3=O)c2)nc1 (centres unmarked) [Example 149, 1-(3-(5-Methylpyridin-2-yl)phenyl)-4-(4-(1,3-thiazol-2-ylcarbonyl)piperazin-1-yl)pyrrolidin-2-one]
- inhibition at 10 µM: 96%

Structure (SMILES): Cc1cccc(-c2cccc(N3CC(N4CCN(C(=O)c5nccs5)CC4)CC3=O)c2)n1 (centres unmarked) [Example 150, 1-(3-(6-Methylpyridin-2-yl)phenyl)-4-(4-(1,3-thiazol-2-ylcarbonyl)piperazin-1-yl)pyrrolidin-2-one]
- inhibition at 10 µM: 96%
- % inhibition at 10 μM (10 µM): 83%

Structure (SMILES): O=C(c1nccs1)N1CCN(C2CC(=O)N(c3cccc(-c4ncccc4Cl)c3)C2)CC1 (centres unmarked) [Example 151, 1-(3-(3-chloropyridin-2-yl)phenyl)-4-(4-(1,3-thiazol-2-ylcarbonyl)piperazin-1-yl)pyrrolidin-2-one]
- inhibition at 10 µM: 99%

Structure (SMILES): Cc1ccnc(-c2cccc(N3CC(N4CCN(C(=O)c5nccs5)CC4)CC3=O)c2)c1 (centres unmarked) [Example 152, 1-(3-(4-rnethylpyridin-2-yl)phenyl)-4-(4-(1,3-thiazol-2-ylcarbonyl)piperazin-1-yl)pyrrolidin-2-one]
- inhibition at 10 µM: 99%

Structure (SMILES): Cc1cccc(C#N)c1-c1cccc(N2CC(N3CCN(C(=O)c4nccs4)CC3)CC2=O)c1 (centres unmarked) [Example 154, 6-methyl-3′-(2-oxo-4-(4-(1,3-thiazol-2-ylcarbonyl)piperazin-1-yl)pyrrolidin-1-yl)biphenyl-2-carbonitrile]
- inhibition at 10 µM: 101%

Structure (SMILES): Cc1noc(C)c1-c1cccc(N2CC(N3CCN(C(=O)c4nccs4)CC3)CC2=O)c1 (centres unmarked) [Example 155, 1-(3-(3,5-dimethyl-1,2-oxazol-4-yl)phenyl)-4-(4-(1,3-thiazol-2-ylcarbonyl)piperazin-1-yl)pyrrolidin-2-one]
- inhibition at 10 µM: 99%
